Counter-ions that a name gives are not always drawn. Like-named read-outs stand apart in the source and are kept apart here.
Target: T1, HIV protease (Human immunodeficiency virus type 1 group M subtype B, UniProt P04585)
T1 construct: A third viral enzyme known as protease then cleaves the polyproteins
Test: Enzymatic Assay for Determining the Inhibition Constant (Ki) of Synthetic Compounds Targeting the HIV Protease (fluorometric FRET assay)
Assay type: biochemical
How it was run: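 Ki obtained via the Henderson equation from enzyme velocities with and without compound, accounting for substrate concentration and Km. Activity followed by FRET fluorescence from cleavage of a substrate flanked by EDANS donor and DABCYL acceptor.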

[1] = Table 1, compounds of formula I, read-out: Ki (anti-protease activity)

Structure (SMILES) | Ki [nM] | Ki [1] [nM]
Cc1ccc(S(=O)(=O)N(CC(C)C)[C@@H](CCCCNC(=O)[C@H](Cc2c[nH]c3ccccc23)NC(=O)CCc2ccccc2)C(=O)O)cc1 [Example 133, Nα-Isobutyl-Nα-(4-methylbenzenesulfonyl)-Nε-(N′α-dihydrocinnamoyl-L-tryptophanyl)-L-lysine] | 0.606 | 
Cc1ccc(S(=O)(=O)N(CC(C)C)[C@H](CO)CCCCNC(=O)[C@H](Cc2ccccn2)NC(=O)OC(C)(C)C)cc1 [Example 134, (2S,2′S) 2-N-Isobutyl-2-N-(4-methylbenzenesulfonyl)-6-N-(N′α-tert-butoxycarbonyl-S-2-pyridylalanyl)-2,6-diaminohexanol] | 30 | 
Cc1ccc(S(=O)(=O)N(CC(C)C)[C@H](CO)CCCCNC(=O)[C@H](Cc2cccnc2)NC(=O)OC(C)(C)C)cc1 [Example 135, (2S,2′S) 2-N-Isobutyl-2-N-(4-methylbenzenesulfonyl)-6-N-(N′α-tert-butoxycarbonyl-S-3-pyridylalanyl)-2,6-diaminohexanol] | 144 | 
Cc1ccc(S(=O)(=O)N(CC(C)C)[C@H](CO)CCCCNC(=O)[C@H](Cc2ccncc2)NC(=O)OC(C)(C)C)cc1 [Example 136, (2S,2′S) 2-N-Isobutyl-2-N-(4-methylbenzenesulfonyl)-6-N-(N′α-tert-butoxycarbonyl-S-4-pyridylalanyl)-2,6-diaminohexanol] |  | 110
Cc1ccc(S(=O)(=O)N(CC(C)C)[C@H](CO)CCCCNC(=O)[C@H](Cc2ccccc2F)NC(=O)OC(C)(C)C)cc1 [Example 138, (2S,2′S) 2-N-Isobutyl-2-N-(4-methylbenzenesulfonyl)-6-N-(N′α-tert-butoxycarbonyl-S-2-fluorophenylalanyl)-2,6-diaminohexanol] | 10 | 
Cc1ccc(S(=O)(=O)N(CC(C)C)[C@H](CO)CCCCNC(=O)[C@H](Cc2cccc(F)c2)NC(=O)OC(C)(C)C)cc1 [Example 139, (2S,2′S) 2-N-Isobutyl-2-N-(4-methylbenzenesulfonyl)-6-N-(N′α-tert-butoxycarbonyl-S-3-fluorophenylalanyl)-2,6-diaminohexanol] | 4.1 | 
Cc1ccc(S(=O)(=O)N(CC(C)C)[C@H](CO)CCCCNC(=O)[C@H](Cc2ccc(F)cc2)NC(=O)OC(C)(C)C)cc1 [Example 140, (2S,2′S) 2-N-Isobutyl-2-N-(4-methylbenzenesulfonyl)-6-N-(N′α-tert-butoxycarbonyl-S-4-fluorophenylalanyl)-2,6-diaminohexanol] | 4.2 | 
Cc1ccc(S(=O)(=O)N(CC(C)C)[C@H](CO)CCCCNC(=O)[C@@H]2Cc3c([nH]c4ccccc34)CN2C(=O)OC(C)(C)C)cc1 [Example 141, (2S,2′S) 2-N-Isobutyl-2-N-(4-methylbenzenesulfonyl)-6-N-(N′α-tert-butoxycarbonyl-S-1,2,3,4-tetrahydronorharman-3-carbonyl)-2,6-diaminohexanol] | 38 | 
Cc1ccc(S(=O)(=O)N(CC(C)C)[C@H](CO)CCCCNC(=O)[C@H](Cc2ccc(C(C)(C)C)cc2)NC(=O)OC(C)(C)C)cc1 [Example 142, (2S,2′S) 2-N-Isobutyl-2-N-(4-methylbenzenesulfonyl)-6-N-(N′α-tert-butoxycarbonyl-S-4-tert-butylphenylalanyl)-2,6-diaminohexanol] | 93 | 
Cc1ccc(S(=O)(=O)N(CC(C)C)[C@H](CO)CCCCNC(=O)[C@H](Cc2c(F)c(F)c(F)c(F)c2F)NC(=O)OC(C)(C)C)cc1 [Example 143, (2S,2′S) 2-N-Isobutyl-2-N-(4-methylbenzenesulfonyl)-6-N-(N′α-tert-butoxycarbonyl-S-pentafluorophenylalanyl)-2,6-diaminohexanol] | > 300 | 
Cc1ccc(S(=O)(=O)N(CC(C)C)[C@H](CO)CCCCNC(=O)[C@H](Cc2ccc(CNC(=O)OCC3c4ccccc4-c4ccccc43)cc2)NC(=O)OC(C)(C)C)cc1 [Example 144, (2S,2′S) 2-N-Isobutyl-2-N-(4-methylbenzenesulfonyl)-6-N-[N′α-tert-butoxycarbonyl-S-4-(9-fluorenemethoxycarbonylaminomethyl)phenylalanyl]-2,6-diaminohexanol] |  | > 300
Cc1ccc(S(=O)(=O)N[C@@H](Cc2c[nH]c3ccccc23)C(=O)NCCCC[C@@H](CO)N(CC(C)C)S(=O)(=O)c2ccc(N)cc2)cc1 [Example 145, (2S,2′S) 2-N-(4-Aminobenzenesulfonyl)-2-N-isobutyl-6-N-[N′α-(4-methylbenzenesulfonyl)-S-tryptophanyl]-2,6-diaminohexanol] | 1.9 | 
COc1ccc(S(=O)(=O)N(CC(C)C)[C@H](CO)CCCCNC(=O)[C@@H](N)Cc2c[nH]c3ccccc23)cc1 [Example 146, (2S,2′S) 2-N-Isobutyl-2-N-(4-methoxybenzenesullfonyl)-6-N-(S-tryptophanyl)-2,6-diaminohexanol Trifluoroacetic Acid Salt] |  | 15
COc1ccc(S(=O)(=O)N(CC(C)C)[C@H](CO)CCCCNC(=O)[C@H](Cc2c[nH]c3ccccc23)NC(=O)OC(C)(C)C)cc1 [Example 147, (2S,2′S) 2-N-Isobutyl-2-N-(4-methoxybenzenesulfonyl)-6-N-(N′α-tert-butoxycarbonyl-S-tryptophanyl)-2,6-diaminohexanol] | 16 | 
COc1ccc(S(=O)(=O)N(CC(C)C)[C@H](CO)CCCCNC(=O)[C@H](Cc2c[nH]c3ccccc23)NC(=O)C(C)(C)C)cc1 [Example 148, (2S,2′S) 2-N-Isobutyl-2-N-(4-methoxybenzenesulfonyl)-6-N-(N′α-pivaloyl-S-tryptophanyl)-2,6-diaminohexanol] | 1.9 | 
COc1ccc(S(=O)(=O)N(CC(C)C)[C@H](CO)CCCCNC(=O)[C@H](Cc2c[nH]c3ccccc23)NS(=O)(=O)c2ccc(C)cc2)cc1 [Example 149, (2S,2′S) 2-N-Isobutyl-2-N-(4-methoxybenzenesulfonyl)-6-N-[N′α-(4-methylbenzenesulfonyl)-S-tryptophanyl]-2,6-diaminohexanol] | 7.5 | 
COC(=O)[C@H](CCCCNC(=O)[C@H](Cc1c[nH]c2ccccc12)NC(=O)OC(C)(C)C)N(CC1CCCC1)S(=O)(=O)c1ccc(OC)cc1 [Example 150, Nα-Cyclopentylmethyl-Nα-(4-methoxybenzenesulfonyl)-Nε-(N′α-tert-butoxycarbonyl-L-tryptophanyl)-L-lysine Methyl Ester] | > 300 | 
COc1ccc(S(=O)(=O)N(CC2CCCC2)[C@@H](CCCCNC(=O)[C@H](Cc2c[nH]c3ccccc23)NC(=O)OC(C)(C)C)C(=O)O)cc1 [Example 151, Nα-Cyclopentylnethyl-Nα-(4-methoxybenzenesulfonyl)-Nε-(N′α-tert-butoxycarbonyl-L-tryptophanyl)-L-lysine] | 5.3 | 
COc1ccc(S(=O)(=O)N(CC2CCCC2)[C@H](CO)CCCCNC(=O)[C@@H](N)Cc2c[nH]c3ccccc23)cc1 [Example 152, (2S,2′S) 2-N-Cyclopentylmethyl-2-N-(4-methoxybenzenesulfonyl)-6-N-(S-tryptophanyl)-2,6-diaminohexanol Trifluoroacetic Acid Salt] |  | 12
COc1ccc(S(=O)(=O)N(CC2CCCC2)[C@H](CO)CCCCNC(=O)[C@H](Cc2c[nH]c3ccccc23)NC(=O)OC(C)(C)C)cc1 [Example 153, (2S,2′S) 2-N-Cyclopentylmethyl-2-N-(4-methoxybenzenesulfonyl)-6-N-(N′α-tert-butoxycarbonyl-S-tryptophanyl)-2,6-diaminohexanol] | 24 | 
Cc1ccc(S(=O)(=O)N[C@@H](Cc2ccccc2)C(=O)NCCC[C@@H](C(=O)O)N(CC(C)C)S(=O)(=O)c2ccc(C)cc2)cc1 [Example 154, Nα-Isobutyl-Nα-(4-methylbenzenesulfonyl)-Nε-[N′α-(4-methylbenzenesulfonyl)-L-phenylalanyl]-L-ornithine] | > 300 | 
Cc1ccc(S(=O)(=O)N(CC(C)C)[C@H](CO)CCCCNC(=O)CN(Cc2ccccc2)c2ccccc2)cc1 [Example 156, (2S) 2-N-Isobutyl-2-N-(4-methylbenzenesulfonyl)-6-N-(N′α-benzyl-N′α-phenylglycyl)-2,6-diaminohexanol] | 7.6 | 
Cc1ccc(S(=O)(=O)N(CC(C)C)[C@H](CO)CCCCNC(=O)CN(Cc2ccccc2)C(=O)c2ccccc2)cc1 [Example 158, (2S) 2-N-Isobutyl-2-N-(4-methylbenzenesulfonyl)-6-N-(N′α-benzoyl-N′α-benzylglycyl)-2,6-diaminohexanol] | 95 | 
Cc1ccc(S(=O)(=O)N(CC(=O)NCCCC[C@@H](CO)N(CC(C)C)S(=O)(=O)c2ccc(C)cc2)Cc2ccccc2)cc1 [Example 159, (2S) 2-N-Isobutyl-2-N-(4-methylbenzenesulfonyl)-6-N-[N′α-benzyl-N′α-(4-methylbenzenesulfonyl)glycyl]-2,6-diaminohexanol] | 101 | 
Cc1ccc(S(=O)(=O)N(CC(C)C)[C@H](CO)CCCCNC(=O)CN(CCc2ccccc2)c2ccccc2)cc1 [Example 160, (2S) 2-N-Isobutyl-2-N-(4-methylbenzenesulfonyl)-6-N-(N′α-phenethyl-N′α-phenylglycyl]-2,6-diaminohexanol] |  | 52
Cc1ccc(S(=O)(=O)N(CC(C)C)[C@H](CO)CCCCNC(=O)[C@H](Cc2c[nH]c3ccccc23)NS(=O)(=O)c2ccc(N)cc2)cc1 [Example 161, (2S,2′S) 2-N-Isobutyl-2-N-(4-methylbenzenesulfonyl)-6-N-[N′α-(4-aminobenzenesulfonyl)-S-tryptophanyl]-2,6-diaminohexanol] | 1.4 | 
COc1ccc(CC(=O)N[C@@H](Cc2ccccc2)C(=O)NCCCC[C@@H](CO)N(CC(C)C)S(=O)(=O)c2ccc(C)cc2)cc1 [Example 162, (2S,2′S) 2-N-Isobutyl-2-N-(4-methylbenzenesulfonyl)-6-N-[N′α-(4-methoxyphenylacetyl)-S-phenylalanyl]-2,6-diaminohexanol] | 1.2 | 
COc1ccc(CC(=O)N[C@@H](Cc2ccccc2)C(=O)NCCCC[C@@H](C(=O)O)N(CC(C)C)S(=O)(=O)c2ccc(N)cc2)cc1 [Example 163, Nα-(4-Aminobenzenesulfonyl)-Nα-isobutyl-Nε-[N′α-(4-methoxyphenylacetyl)-L-phenylalanyl]-L-lysine] | 0.27 | 
